Key:
Assay type in all cases: cell-based, human
[1] = test system: B2M, CD3, MHC II; test: Flow cytometry of antigen negative T cells (B2M, CD3, MHC II) after BC22n or Cas9 editing, Example 16A
Text: Cells were subsequently washed, processed on a Cytoflex instrument (Beckman Coulter) and analyzed using the FlowJo software package. T cells were gated based on size, shape, viability, and antigen expression.

[2] = test system: B2M, TRAC, TRBC1/2, CIITA; test: NGS editing profile of T cells with BC22n or Cas9 mRNA, single or four guides, LNP titration, Example 16A; conditions: four guides simultaneously, with trans UGI;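 also: activated T cells exposed to LNPs 72 h after activation, kept at 37 °C, harvested on day 10 post activation, editing measured by NGS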
[3] = test system: B2M, TRAC, TRBC, CIITA; test: NGS percent editing after LNP delivery of BC22n or Cas9 with single or four guides, Example 16.B.6; conditions: 4 guides delivered by LNP
Procedure: (§1) LNPs were formulated generally as in Example 1 with a single RNA species cargo. […] Seventy-two hours post activation, T cells were washed and suspended in OpTmizer media with cytokines without human serum. […] A control group including unedited T cells (no LNP) was also included. At 16 hours post-delivery, a subset of cells was used to measure cell viability and another subset of cells was processed for imaging of γH2AX foci. The remaining T cells continued to expand in culture. Media was changed 5 days and 8 days after activation and on the eleventh day post activation, cells were harvested for analysis by NGS, flow cytometry and UnIT. NGS was performed as in Example 1.
(§2) On day 8 post-editing, T cells were phenotyped by flow cytometry to determine B2M, CD3 and HLA II− DR, DP, DQ protein expression. Briefly, T cells were incubated in a cocktail of antibodies targeting B2M-APC/Fire™ 750 (BioLegend® Cat. No. 316314), CD3-BV605 (BioLegend® Cat. No. […]) and HLA II− DR, DP, DQ-PE (BioLegend® Cat. No. 361716). Cells were subsequently washed, processed on a Cytoflex flow cytometer (Beckman Coulter) and analyzed using the FlowJo software package. T cells were gated based on size, shape, viability, and MHC II expression. […]

[4] = test system: B2M, CD3, HLA II-DR, DP, DQ; test: Flow cytometry of surface proteins (B2M, CD3, HLA II-DR, DP, DQ) after LNP delivery, Example 16.B.6; conditions: LNP treatment
Procedure: as §1, §2

[5] = test system: interchromosomal translocations; test: UnIT structural variant assay (interchromosomal translocations), Example 16.B.7; conditions: multiplex editing with 4 guides by LNP
Procedure: On day 8 post-editing a subset of T cells from the untreated, LNP-Cas9-4 guides and LNP-BC22n-4 guides samples were collected, spun down and resuspended in 100 μL of PBS. gDNA was isolated from the cells using DNeasy Blood & Tissue Kit (Qiagen Cat. 69504). The UnIT structural variant characterization assay was applied to these gDNA samples. High molecular weight genomic DNA is simultaneously fragmented and sequence-tagged (‘tagmented’) with the Tn5 transposase and an adapter with a partial Illumina P5 sequence and a 12 bp unique molecular identifier (UMI). Two sequential PCRs using a primer to P5 and hemi-nested gene specific primers (GSP) imparting the Illumina the P7 sequence to create two Illumina compatible NGS libraries per sample. Sequencing across both directions of the CRISPR/Cas9 targeted cut site with the two libraries allows the inference and quantification of structural variants in DNA repair outcomes after genome editing.

## BC22n: mRNA encoding editor: H. sapiens APOBEC3A fused to S. pyogenes-D10A Cas9 nickase by an XTEN linker, without UGI
[1]; four guides, with trans UGI, highest total RNA dose of 550 ng
  % of cells lacking all three antigens (triple knockout: B2M, CD3, MHC II): 84.2%
[1]; samples treated with one guide only
  R square, C to T conversions compared to antigen knockout: 0.93
[2]
  maximum total editing for each locus compared with Cas9, in words: higher percentages of maximum total editing for each locus
[3]
  percent editing at each locus compared with Cas9, in words: percent editing is higher at each locus
[4]
  triple knockout cells compared with Cas9, in words: greater percentage of triple knockout cells
[5]
  interchromosomal translocations / structural variation (UnIT), in words: reduced to background levels

From US20230183753A1, “Methods of in Vitro Cell Delivery” (Intellia Therapeutics, Inc., priority 2020, published 2023)
